What was measured:
Experiment in all cases: cells
Assay type in all cases: cell-based
HT29 = HT29 (Colon Cancer), 10 μM, 48 hours
SNB-75 = SNB-75 (CNS Cancer), 10 μM, 48 hours
OVCAR-3 = OVCAR-3 (Ovarian Cancer), 10 μM, 48 hours
MDA-MB-435 = MDA-MB-435 (Melanoma), 10 μM, 48 hours
A549/ATCC = A549/ATCC (Non-Small Cell Lung Cancer), 10 μM, 48 hours
SF-268 = SF-268 (CNS Cancer), 10 μM, 48 hours
MOLT-4 = MOLT-4 (Leukemia), 10 μM, 48 hours
UACC-62 = UACC-62 (Melanoma), 10 μM, 48 hours
NCI-H460 = NCI-H460 (Non-Small Cell Lung Cancer), 10 μM, 48 hours
SW-620 = SW-620 (Colon Cancer), 10 μM, 48 hours
HS 578T = HS 578T (Breast Cancer), 10 μM, 48 hours
PC-3 = PC-3 (Prostate Cancer), 10 μM, 48 hours
BT-549 = BT-549 (Breast Cancer), 10 μM, 48 hours
K-562 = K-562 (Leukemia), 10 μM, 48 hours
HCT-116 = HCT-116 (Colon Cancer), 10 μM, 48 hours
NCI-H322M = NCI-H322M (Non-Small Cell Lung Cancer), 10 μM, 48 hours
NCI-H23 = NCI-H23 (Non-Small Cell Lung Cancer), 10 μM, 48 hours
RPMI-8226 = RPMI-8226 (Leukemia), 10 μM, 48 hours
OVCAR-4 = OVCAR-4 (Ovarian Cancer), 10 μM, 48 hours
COLO 205 = COLO 205 (Colon Cancer), 10 μM, 48 hours
MDA-MB-231/ATCC = MDA-MB-231/ATCC (Breast Cancer), 10 μM, 48 hours
HL-60 (TB) = HL-60 (TB) (Leukemia), 10 μM, 48 hours
LOX IMVI = LOX IMVI (Melanoma), 10 μM, 48 hours
SK-MEL-28 = SK-MEL-28 (Melanoma), 10 μM, 48 hours
MDA-MB-468 = MDA-MB-468 (Breast Cancer), 10 μM, 48 hours
HCC-2998 = HCC-2998 (Colon Cancer), 10 μM, 48 hours
U251 = U251 (CNS Cancer), 10 μM, 48 hours
TK-10 = TK-10 (Renal Cancer), 10 μM, 48 hours
SR = SR (Leukemia), 10 μM, 48 hours
IGROV1 = IGROV1 (Ovarian Cancer), 10 μM, 48 hours
A498 = A498 (Renal Cancer), 10 μM, 48 hours
SK-OV-3 = SK-OV-3 (Ovarian Cancer), 10 μM, 48 hours

Row | Structure (SMILES) | growth percentage (HT29) | growth percentage (SNB-75) | growth percentage (OVCAR-3) | growth percentage (MDA-MB-435) | growth percentage (A549/ATCC) | growth percentage (SF-268) | growth percentage (MOLT-4) | growth percentage (UACC-62) | growth percentage (NCI-H460) | growth percentage (SW-620) | growth percentage (HS 578T) | growth percentage (PC-3) | growth percentage (BT-549) | growth percentage (K-562) | growth percentage (HCT-116) | growth percentage (NCI-H322M) | growth percentage (NCI-H23) | growth percentage (RPMI-8226) | growth percentage (COLO 205) | growth percentage (MDA-MB-231/ATCC) | other results
1 | O=C1c2cc(Cl)ccc2-c2c(SCCO)nc3ccccc3c21 [SJ-25, 6-(2-Hydroxyethylthio)-9-chloro-11H-indeno[1,2-c]quinolin-11-one] | 84.03% | 66.06% | 89.42% | 95.15% | 76.42% | 96.53% | 59.49% | 84.47% | 79.22% | 86.99% | 58.28% | 58.35% | 92.88% | 63.81% | 77.94% | 73.47% | 66.22% | 62.28% | 87.39% | 72.56% | growth percentage (OVCAR-4): 73.19%; growth percentage (HL-60 (TB)): 91.75%; growth percentage (LOX IMVI): 68.41%; growth percentage (SK-MEL-28): 86.90%; growth percentage (MDA-MB-468): 77.36%; growth percentage (HCC-2998): 96.27%; growth percentage (U251): 78.04%; growth percentage (TK-10): 99.82%; growth percentage (SR): 61.70%; growth percentage (IGROV1): 69.73%
2 | O=C1c2cc(Cl)ccc2-c2c(O)nc3ccccc3c21 [SJ-26, 6-Hydroxy-9-chloro-11H-indeno[1,2-c]quinolin-11-one] | 102.38% | 80.33% | 117.80% | 100.35% | 104.88% | 106.64% | 95.10% | 95.17% | 83.32% | 95.26% | 105.98% | 93.44% | 120.08% | 97.48% | 103.43% | 90.72% | 81.56% | 90.60% | 98.25% | 86.98% | growth percentage (OVCAR-4): 80.74%; growth percentage (HL-60 (TB)): 102.31%; growth percentage (LOX IMVI): 86.91%; growth percentage (SK-MEL-28): 100.02%; growth percentage (MDA-MB-468): 80.08%; growth percentage (HCC-2998): 102.24%; growth percentage (U251): 96.46%; growth percentage (TK-10): 126.63%; growth percentage (SR): 77.02%; growth percentage (IGROV1): 91.28%
3 | COc1nc2ccccc2c2c1-c1ccc(Cl)cc1C2=O [SJ-27, 6-Methoxy-9-chloro-11H-indeno[1,2-c]quinolin-11-one] | 111.60% | 59.75% | 111.89% | 100.31% | 99.70% | 113.64% | 110.33% | 74.08% | 98.27% | 98.89% | 92.74% | 74.44% | 92.95% | 108.53% | 88.60% | 99.80% | 93.26% | 90.30% | 108.91% | 74.61% | growth percentage (A498): 93.51%; growth percentage (HL-60 (TB)): 108.77%; growth percentage (LOX IMVI): 116.91%; growth percentage (SK-MEL-28): 106.24%; growth percentage (MDA-MB-468): 99.51%; growth percentage (SK-OV-3): 119.79%; growth percentage (HCC-2998): 104.46%; growth percentage (U251): 97.67%; growth percentage (IGROV1): 96.92%
4 | O=C1c2cc(Cl)ccc2-c2c(Cl)nc3ccccc3c21 [TC-XCl-1, 6,9-Dichloro-11H-indeno[1,2-c]quinolin-11-one] | 104.27% | 82.91% | 119.93% | 100.46% | 108.98% | 117.27% | 70.83% | 94.45% | 98.68% | 98.29% | 91.01% | 92.73% | 119.62% | 102.16% | 105.87% | 95.38% | 79.30% | 92.83% | 99.18% | 87.66% | growth percentage (OVCAR-4): 94.13%; growth percentage (HL-60 (TB)): 102.00%; growth percentage (LOX IMVI): 84.23%; growth percentage (SK-MEL-28): 90.08%; growth percentage (MDA-MB-468): 107.92%; growth percentage (HCC-2998): 98.52%; growth percentage (U251): 100.63%; growth percentage (TK-10): 138.45%; growth percentage (SR): 65.85%; growth percentage (IGROV1): 92.82%
